Strand notation (5' to 3'): a small letter for the sugar, then the base; units joined by * are phosphorothioate-linked, units joined directly phosphodiester-linked; [ ] holds rarer units or linkages, { } end groups; capitals alone tell only the bases. e = 2'-O-(2-methoxyethyl) (MOE); [5mC] = 5-methylcytosine; d = 2'-deoxy (DNA)
test system: mouse microsomal triglyceride transfer protein mRNA; assay: Antisense inhibition of mouse microsomal triglyceride transfer protein mRNA levels in primary hepatocytes, quantitative real-time PCR; assay type: cell-based; design: concentration or dose not given beside the values; conditions: averages from two experiments
Procedure: Primary mouse hepatocytes were prepared from CD-1 mice purchased from Charles River Labs (Wilmington, Mass.) and were routinely cultured in Hepatocyte Attachment Media (Gibco) supplemented with 10% Fetal Bovine Serum (Gibco/Life Technologies, Gaithersburg, Md.), 250 nM dexamethasone (Sigma), and 10 nM bovine insulin (Sigma). Cells were seeded into 96-well plates (Falcon-Primaria #3872) at a density of 10000 cells/well for use in RT-PCR analysis.
Cells were harvested 16-24 hours after oligonucleotide treatment.
All cytidine residues are 5-methylcytidines. […] Data are averages from two experiments. If present, “N.D.” indicates “no data”.

“144467 (eG*e[5mC]*eT*e[5mC]*e[5mC]*d[5mC]*dT*d[5mC]*dT*dG*d[5mC]*d[5mC]*dA*d[5mC]*dA*eT*e[5mC]*e[5mC]*eA*eG; antisense) [compound 144467]” and “144468 (eG*eA*eT*e[5mC]*eA*dT*dG*d[5mC]*dT*dG*dG*d[5mC]*dT*d[5mC]*d[5mC]*e[5mC]*eT*e[5mC]*eT*eG; antisense) [compound 144468]” are the same in “% INHIB (inhibition of mouse microsomal triglyceride transfer protein mRNA levels)” value (“% INHIB” for short): 0% for the first, 0% for the second.

Compared with “144469 (eG*eA*eG*eT*eA*d[5mC]*dG*dT*dG*dA*dG*d[5mC]*dT*dT*dG*eT*eA*eT*eA*eG; antisense) [compound 144469]”, “144470 (eG*eT*eA*eG*e[5mC]*d[5mC]*d[5mC]*dA*d[5mC]*dG*d[5mC]*dT*dG*dT*d[5mC]*eT*eT*eG*e[5mC]*eG; antisense) [compound 144470]” is higher in “% INHIB” value: 0% for the first, 5% for the second.

Going from “144471 (e[5mC]*eA*eT*e[5mC]*eA*d[5mC]*d[5mC]*dA*dT*d[5mC]*dA*dG*dG*dA*dT*eT*e[5mC]*e[5mC]*eT*e[5mC]; antisense) [compound 144471]” to “144472 (eG*e[5mC]*e[5mC]*e[5mC]*eT*dG*dG*dA*dA*dG*dA*dT*dG*d[5mC]*dT*e[5mC]*eT*eT*e[5mC]*eT; antisense) [compound 144472]”, the “% INHIB” value falls from 21% to 0%.

Going from “144473 (eG*e[5mC]*e[5mC]*eT*e[5mC]*d[5mC]*dA*dG*dG*dT*dT*dG*dT*d[5mC]*d[5mC]*eT*eT*e[5mC]*e[5mC]*e[5mC]; antisense) [compound 144473]” to “144474 (eT*eA*eG*eA*eA*d[5mC]*dT*d[5mC]*d[5mC]*dT*dT*dG*dA*d[5mC]*d[5mC]*eT*eT*e[5mC]*e[5mC]*e[5mC]; antisense) [compound 144474]”, the “% INHIB” value rises from 1% to 16%.

First: 144475 (eT*eG*eG*eA*eA*dT*dA*dA*dG*d[5mC]*dT*dA*dG*d[5mC]*d[5mC]*eA*eA*eG*e[5mC]*e[5mC]; antisense) [compound 144475]
Second: 144476 (e[5mC]*e[5mC]*e[5mC]*eA*eG*dA*dG*dA*dT*dA*dT*d[5mC]*dT*dA*d[5mC]*e[5mC]*eT*e[5mC]*eG*eT; antisense) [compound 144476]
The “% INHIB” value of the first is lower: 18% for the first, 19% for the second.

Compared with “144477 (e[5mC]*e[5mC]*e[5mC]*eA*eG*d[5mC]*dA*d[5mC]*d[5mC]*dT*dG*dG*dT*dT*dT*eG*e[5mC]*e[5mC]*eG*eT; antisense) [compound 144477]”, “144478 (e[5mC]*e[5mC]*e[5mC]*eT*eG*dG*dT*d[5mC]*dT*d[5mC]*dT*dT*d[5mC]*dT*dG*e[5mC]*eA*eA*eG*e[5mC]; antisense) [compound 144478]” is lower in “% INHIB” value: 94% for the first, 41% for the second.

Compared with “144479 (e[5mC]*eA*e[5mC]*e[5mC]*eT*dG*d[5mC]*d[5mC]*dA*d[5mC]*dT*dT*dG*d[5mC]*dT*eT*e[5mC]*e[5mC]*e[5mC]*eG; antisense) [compound 144479]”, “144480 (eG*e[5mC]*eT*e[5mC]*eG*dA*dG*dG*dA*d[5mC]*d[5mC]*dT*dG*dT*d[5mC]*e[5mC]*e[5mC]*eA*e[5mC]*eA; antisense) [compound 144480]” is lower in “% INHIB” value: 65% for the first, 51% for the second.

Compared with “144481 (eT*eT*e[5mC]*e[5mC]*eA*dG*dT*dG*d[5mC]*dT*d[5mC]*d[5mC]*dG*d[5mC]*d[5mC]*eA*eG*eA*eG*eA; antisense) [compound 144481]”, “144482 (eG*eA*eA*eG*eT*d[5mC]*d[5mC]*dG*dG*dA*dG*dG*dT*dG*d[5mC]*eT*eG*eG*eA*eT; antisense) [compound 144482]” is lower in “% INHIB” value: 33% for the first, 3% for the second.

First: 144483 (e[5mC]*eA*eG*eA*eG*dG*dT*dG*dA*d[5mC]*dG*dG*d[5mC]*dA*dT*e[5mC]*e[5mC]*eA*e[5mC]*e[5mC]; antisense) [compound 144483]
Second: 144484 (e[5mC]*e[5mC]*eT*eG*eG*dA*dG*dT*dA*dT*dG*dA*dT*dA*d[5mC]*eT*eG*e[5mC]*eT*eG; antisense) [compound 144484]
The “% INHIB” value of the first is lower: 22% for the first, 48% for the second.

Compared with “144485 (e[5mC]*eT*e[5mC]*eT*eG*dA*dT*dG*dT*d[5mC]*dG*dT*dT*dG*d[5mC]*eT*eT*eG*e[5mC]*eA; antisense) [compound 144485]”, “144486 (eA*eT*eT*e[5mC]*eT*dG*dA*d[5mC]*dA*d[5mC]*dA*dG*d[5mC]*dT*dT*e[5mC]*e[5mC]*eT*eG*eA; antisense) [compound 144486]” is lower in “% INHIB” value: 50% for the first, 34% for the second.

First: 144487 (e[5mC]*e[5mC]*e[5mC]*eA*eG*dG*dA*dT*d[5mC]*dA*dG*d[5mC]*dT*dT*d[5mC]*eT*eT*eA*eG*e[5mC]; antisense) [compound 144487]
Second: 144488 (e[5mC]*eA*eG*e[5mC]*e[5mC]*dT*d[5mC]*dA*dG*d[5mC]*dA*dT*dA*d[5mC]*dT*eT*e[5mC]*eA*eG*eA; antisense) [compound 144488]
The “% INHIB” value of the first is lower: 19% for the first, 35% for the second.

Going from “144489 (eG*eT*eG*eG*e[5mC]*dT*dG*dA*d[5mC]*dG*dG*dG*d[5mC]*d[5mC]*d[5mC]*eT*eT*e[5mC]*eT*e[5mC]; antisense) [compound 144489]” to “144490 (eA*e[5mC]*eG*eA*eT*dT*d[5mC]*dT*dG*dG*dT*dG*dG*dT*dA*eT*eA*eT*e[5mC]*e[5mC]; antisense) [compound 144490]”, the “% INHIB” value falls from 42% to 23%.

First: 144491 (e[5mC]*eA*eG*e[5mC]*eA*dG*d[5mC]*dG*dG*d[5mC]*dA*dG*dT*dT*dG*eT*eG*e[5mC]*eG*e[5mC]; antisense) [compound 144491]
Second: 144492 (eT*eG*e[5mC]*eA*e[5mC]*dA*dA*d[5mC]*dG*dG*dT*dG*dA*dG*d[5mC]*eA*eT*eG*eT*eA; antisense) [compound 144492]
The “% INHIB” value of the first is lower: 26% for the first, 39% for the second.

Compared with “144493 (eG*e[5mC]*e[5mC]*eA*eG*dT*dA*dT*dA*dG*dG*d[5mC]*dA*dG*dA*eA*eG*eA*eG*eG; antisense) [compound 144493]”, “144494 (eA*eA*eG*eG*e[5mC]*dT*dG*dT*dA*dT*dG*dT*dG*dG*dA*e[5mC]*eG*e[5mC]*eT*eG; antisense) [compound 144494]” is higher in “% INHIB” value: 24% for the first, 27% for the second.

Compared with “144495 (e[5mC]*eA*eG*eA*eA*dT*dG*d[5mC]*d[5mC]*dA*dG*dA*dG*d[5mC]*d[5mC]*eA*eG*eA*eG*eT; antisense) [compound 144495]”, “144496 (e[5mC]*eT*eG*e[5mC]*eA*dA*dT*dT*dA*dA*dG*d[5mC]*d[5mC]*dT*dT*e[5mC]*e[5mC]*eA*eG*e[5mC]; antisense) [compound 144496]” is lower in “% INHIB” value: 42% for the first, 40% for the second.

Reference: patent publication US20050181376A1, “Antisense modulation of microsomal triglyceride transfer protein expression” (ISIS Pharmaceuticals, Inc., priority 2001, published 2005)
